# Source: patent US20230041563A1, “N-(1,3,4-OXADIAZOL-2-YL)ARYLCARBOXAMIDES OR SALTS THEREOF, PREPARATION METHODS, HERBICIDAL COMPOSITIONS AND USES THEREOF” (priority 2018, published 2023)
# Legend:
# Assay in all cases: Weeding effect in post-emergence stage (greenhouse pot spray)
# Format in all cases: in vivo
# Conditions in all cases: Table 2, dose 500 g a.i./ha
# Abutilon theophrasti = system: Abutilon theophrasti
# Procedure, shortened: (§1)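 Read-out: fresh-weight growth control rate scored 3 weeks after spraying, mean of three replicates. Plants treated at 2-3 leaf stage by spray tower, doses 500-15 g a.i./ha (500, 250, 125, 60, 15).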
# Digitaria sanguinalis = system: Digitaria sanguinalis
# Procedure, shortened: as §1
# Echinochloa crusgalli = system: Echinochloa crusgalli
# Procedure, shortened: as §1
# Amaranthus retroflexus = system: Amaranthus retroflexus
# Description: (§2) The activity level criteria for plant damage (i.e., growth control rate) are as follows:
# (§3) The above growth control rates are fresh weight control rates.
# (§4) Experiment on weeding effect in post-emergence stage: monocotyledonous and dicotyledonous weed seeds (Descurainia sophia, Capsella bursa-pastoris, Abutilon theophrasti, Galium aparine, Stellaria media, Lithospermum arvense, rorippa indica, Alopecurus aequalis, Beckmannia syzigachne, Sclerochloa dura, Phleum paniculatum, Bromus japonicus, Aegilops tauschii, Phalaris arundinacea, Amaranthus retroflexus, Chenopodiaceae, Commelina communis, Sonchus arvensis, convolvulus arvensis, Cirsium setosum, Solanum nigrum, Acalypha australis, Digitaria sanguinalis, Echinochloa crusgalli, Setaria viridis, Setaria glauca, Leptochloa chinensis, Monochoria vaginalis, Sagittaria trifolia, Scirpus juncoides, Cyperus rotundus, Cyperus iria, Cyperus difformis, Fimbristylis, Portulaca oleracea, Xanthium sibiricum, Pharbitis nil) and major crop seeds (wheat, corn, rice, soybean, cotton, oilseed rape, millet, sorghum, potato, sesame, ricinus) were placed in plastic pots filled with soil, then covered with 0.5-2 cm of soil, allowed to grow in a good greenhouse environment. After 2 weeks of sowing, the test plants were treated in the 2 to 3 leaf stage. The tested compounds of the present invention were respectively dissolved in acetone, then added with Tween 80 and 1.5 liter/ha of emulsifiable concentrate of methyl oleate as synergist, diluted with a certain amount of water to obtain a solution with a certain concentration, and sprayed with a spray tower onto the plants. After the application, the plants were cultured for 3 weeks in the greenhouse, and then the experimental results of the weeding were counted. The doses of the used compounds were 500, 250, 125, 60, 15 g a.i./ha, and the averages were obtained by repeating for three times.
# Stellaria media = system: Stellaria media
# Description: as §2, §3, §4
SMILES,Abutilion theophrasti (activity level) (Abutilon theophrasti),Digitaria sanguinalis (activity level) (Digitaria sanguinalis),Echinochloa crusgah (activity level) (Echinochloa crusgalli),Amaranthus retroflexus (activity level) (Amaranthus retroflexus),Stellaria media (activity level) (Stellaria media)
CCC[S+]([O-])c1c(C(F)(F)F)ccc(C(=O)Nc2nnco2)c1F (stereo not drawn) [Compound 3-8],5 (Level 5: growth control rate is above 85%),5 (Level 5: growth control rate is above 85%),5 (Level 5: growth control rate is above 85%),5 (Level 5: growth control rate is above 85%),5 (Level 5: growth control rate is above 85%)
Cc1nnc(NC(=O)c2ccc(C(F)(F)F)c(SCC(F)(F)F)c2F)o1 [Compound 1-50],5 (Level 5: growth control rate is above 85%),5 (Level 5: growth control rate is above 85%),5 (Level 5: growth control rate is above 85%),5 (Level 5: growth control rate is above 85%),5 (Level 5: growth control rate is above 85%)
C=CCC[S+]([O-])c1c(C(F)(F)F)ccc(C(=O)Nc2nnc(C)o2)c1F (stereo not drawn) [Compound 1-397],5 (Level 5: growth control rate is above 85%),5 (Level 5: growth control rate is above 85%),5 (Level 5: growth control rate is above 85%),5 (Level 5: growth control rate is above 85%),5 (Level 5: growth control rate is above 85%)
COCC[S+]([O-])c1c(C(F)(F)F)ccc(C(=O)Nc2nnco2)c1F (stereo not drawn) [Compound 3-57],5 (Level 5: growth control rate is above 85%),5 (Level 5: growth control rate is above 85%),5 (Level 5: growth control rate is above 85%),5 (Level 5: growth control rate is above 85%),5 (Level 5: growth control rate is above 85%)
Cc1nnc(NC(=O)c2ccc(C(F)(F)F)c([S+]([O-])C(C)(C)C)c2F)o1 (stereo not drawn) [Compound 1-137],5 (Level 5: growth control rate is above 85%),5 (Level 5: growth control rate is above 85%),5 (Level 5: growth control rate is above 85%),5 (Level 5: growth control rate is above 85%),5 (Level 5: growth control rate is above 85%)
Cc1nnc(NC(=O)c2ccc(C(F)(F)F)c(SCC(F)F)c2F)o1 [Compound 1-49],5 (Level 5: growth control rate is above 85%),5 (Level 5: growth control rate is above 85%),5 (Level 5: growth control rate is above 85%),5 (Level 5: growth control rate is above 85%),5 (Level 5: growth control rate is above 85%)
CCC(C)C[S+]([O-])c1c(C(F)(F)F)ccc(C(=O)Nc2nnc(C)o2)c1F (mixture of isomers) [Compound 1-29],5 (Level 5: growth control rate is above 85%),5 (Level 5: growth control rate is above 85%),5 (Level 5: growth control rate is above 85%),5 (Level 5: growth control rate is above 85%),5 (Level 5: growth control rate is above 85%)
CC=CC[S+]([O-])c1c(C(F)(F)F)ccc(C(=O)Nc2nnc(C)o2)c1F (stereo not drawn) [Compound 1-398],5 (Level 5: growth control rate is above 85%),5 (Level 5: growth control rate is above 85%),5 (Level 5: growth control rate is above 85%),5 (Level 5: growth control rate is above 85%),5 (Level 5: growth control rate is above 85%)
CC(C)[S+]([O-])c1c(C(F)(F)F)ccc(C(=O)Nc2nnco2)c1F (stereo not drawn) [Compound 3-11],5 (Level 5: growth control rate is above 85%),5 (Level 5: growth control rate is above 85%),5 (Level 5: growth control rate is above 85%),5 (Level 5: growth control rate is above 85%),5 (Level 5: growth control rate is above 85%)
CCCC[S+]([O-])c1c(C(F)(F)F)ccc(C(=O)Nc2nnco2)c1F (stereo not drawn) [Compound 3-14],5 (Level 5: growth control rate is above 85%),5 (Level 5: growth control rate is above 85%),5 (Level 5: growth control rate is above 85%),5 (Level 5: growth control rate is above 85%),5 (Level 5: growth control rate is above 85%)
Cc1nnc(NC(=O)c2ccc(C(F)(F)F)c(SCCC(F)(F)F)c2F)o1 [Compound 1-51],5 (Level 5: growth control rate is above 85%),5 (Level 5: growth control rate is above 85%),5 (Level 5: growth control rate is above 85%),5 (Level 5: growth control rate is above 85%),5 (Level 5: growth control rate is above 85%)
CC[S+]([O-])c1c(C(F)(F)F)ccc(C(=O)Nc2nnco2)c1F (stereo not drawn) [Compound 3-5],5 (Level 5: growth control rate is above 85%),5 (Level 5: growth control rate is above 85%),5 (Level 5: growth control rate is above 85%),5 (Level 5: growth control rate is above 85%),5 (Level 5: growth control rate is above 85%)
CCC(C)[S+]([O-])c1c(C(F)(F)F)ccc(C(=O)Nc2nnco2)c1F (stereo not drawn) [Compound 3-17],5 (Level 5: growth control rate is above 85%),5 (Level 5: growth control rate is above 85%),5 (Level 5: growth control rate is above 85%),5 (Level 5: growth control rate is above 85%),5 (Level 5: growth control rate is above 85%)
O=C(Nc1nnco1)c1ccc(C(F)(F)F)c([S+]([O-])CCC(F)(F)F)c1F (stereo not drawn) [Compound 3-52],5 (Level 5: growth control rate is above 85%),5 (Level 5: growth control rate is above 85%),5 (Level 5: growth control rate is above 85%),5 (Level 5: growth control rate is above 85%),5 (Level 5: growth control rate is above 85%)
CNCC[S+]([O-])c1c(C(F)(F)F)ccc(C(=O)Nc2nnc(C)o2)c1F (stereo not drawn) [Compound 1-441],5 (Level 5: growth control rate is above 85%),5 (Level 5: growth control rate is above 85%),5 (Level 5: growth control rate is above 85%),5 (Level 5: growth control rate is above 85%),5 (Level 5: growth control rate is above 85%)
